Patent US4499269A, “Fused 1,3,5-triazines” (Fisons plc, priority 1982, dated 1985)

What was measured:
[1] = system: rejection of skin grafts; experiment: Rejection of tailskin grafts in mice, graft survival (Example B); format: in vivo, mice (CBA strain donors, Lac/a strain recipients)
Experimental: The tailskin grafting method of Bailey and Usania (Transplantation Bulletin 7, 424-5, 1960) was used.
Sections of tailskin from donor CBA strain mice (agonti) were grafted onto the tails of 16 Lac/a strain mice (albino). Test compound was given from 2 days prior to grafting until graft loss at a dose of 50 mg/kg/day in 1% "Tween 80"/saline vehicle by the intraperitoneal route. Graft condition was assessed daily and mean graft survival time (days) of vehicle, and drug tested groups, was compared.

[2] = system: delayed contact sensitivity to oxazolone (increase of ear thickness); experiment: Delayed contact sensitivity to oxazolone in mice (Example A); format: in vivo; details: for inhibition of increased ear thickness: 24 hours after challenge
Experimental: This response is a measure of a cell-mediated immune response which is dependent on the activity of thymus-derived lymphocytes. Mice are sensitised with 100 μl of oxazolone and are subsequently challenged with 15 μl of 3% oxazolone on their right ears on day 7. The resulting cell-mediated response is measured 24 hours after challenge by assessing the increase of ear thickness using a dial gauge. The unchallenged left ears act as controls.

[3] = system: delayed hypersensitivity reaction to PPD; experiment: Delayed hypersensitivity reaction to PPD in guinea pigs, topical under occlusion (Example C); format: in vivo; details: for % Inhibition 24h after challenge: Diameter of erythema / % Inhibition 24h after challenge: Erythema score / % Inhibition 24h after challenge: Increase in skin thickness: topical under occlusion, n=6
Experimental: Male guinea pigs weighing 250-300 g were sensitised by a subcutaneous injection of Freunds Complete Adjuvant (Difco) in saline. Fourteen days following sensitisation animals were challenged intradermally into a shaved flank with 50 μg of purified protein derivative PPD (in 0.1 ml of saline). Changes in skin thickness were determined immediately before and 24 h and 48 h after antigen challenge. In addition, the diameter of reaction and a semiquantitative estimate of the degree of erythema were determined at 24 h and 48 h.
The compound of Example 1 was applied topically under an occlusive dressing. This consisted of adding a solution of the compound in dimethylacetamide (0.3 ml) to a filter paper square (4×4 cm) backed by surgical tape placed on the challenge site and held in place by adhesive bandage encircling the torso of the animal. The dressing was applied 10 min after challenge and removed 24 h later. Control animals received dimethylacetamide alone to the challenge site.
The effect of the compound of Example 1 applied under occlusion, with antigen challenge, on the delayed hypersensitivity reaction to PPD in guinea pigs (n=6)

SMILES: COc1ccc2c(c1)sc1nc(N)nc(=Nc3ccccc3)n12 [Example 1, 2-Amino-8-methoxy-4-phenylimino-4H-1,3,5-triazino[2,1-b]benzothiazole]
- prolongation of skin graft survival ([1]; 50 mg/kg/day intraperitoneal from 2 days prior to grafting until graft loss, versus vehicle, significant): 2.5 days
- suppression of the rejection of skin grafts ([1]; mice, result in words): suppress the rejection of skin grafts in mice
- inhibition of delayed contact sensitivity to oxazolone ([2]; mice, result in words): inhibit a delayed contact sensitivity to oxazolone in mice
- inhibition of increased ear thickness ([2]; single dose 50 mg/kg intraperitoneal on day 1 relative to sensitisation): 44%
- inhibition of increased ear thickness ([2]; single dose 50 mg/kg intraperitoneal on day 2 relative to sensitisation): 44%
- inhibition of increased ear thickness ([2]; single dose 50 mg/kg intraperitoneal on day 3 relative to sensitisation): 49%
- inhibition of increased ear thickness ([2]; single dose 50 mg/kg intraperitoneal on day 7 relative to sensitisation): 61%
- inhibition of increased ear thickness ([2]; single dose 50 mg/kg intraperitoneal on one of days -1, 0, 1, 2, 3 or 7 relative to sensitisation, result in words): inhibition of increased ear thickness
- % Inhibition 24h after challenge: Diameter of erythema ([3]; 1% in dimethylacetamide): 5%
- % Inhibition 24h after challenge: Erythema score ([3]; 1% in dimethylacetamide): 20%
- % Inhibition 24h after challenge: Increase in skin thickness ([3]; 1% in dimethylacetamide): 20%
- inhibition of the increase in skin thickness ([3]; 1 to 3% in dimethylacetamide, 24 hours post challenge, result in words): dose dependent inhibition of the increase in skin thickness
- reaction diameters and erythema scores ([3]; 1 to 3% in dimethylacetamide, compared with dimethylacetamide controls, result in words): significantly reduced the reaction diameters and erythema scores
- % Inhibition 24h after challenge: Diameter of erythema ([3]; 2% in dimethylacetamide): 16%
- % Inhibition 24h after challenge: Erythema score ([3]; 2% in dimethylacetamide): 32%
- % Inhibition 24h after challenge: Increase in skin thickness ([3]; 2% in dimethylacetamide): 35%
- % Inhibition 24h after challenge: Diameter of erythema ([3]; 3% in dimethylacetamide): 34%
- % Inhibition 24h after challenge: Erythema score ([3]; 3% in dimethylacetamide): 63%
- % Inhibition 24h after challenge: Increase in skin thickness ([3]; 3% in dimethylacetamide): 50%
- suppression of delayed hypersensitivity reaction ([3]; guinea pigs, dosed topically, result in words): suppress a delayed hypersensitivity reaction in guinea pigs
